The results in this text go back to patent US9661854B2, “Molecules having pesticidal utility, and intermediates, compositions, and processes, related thereto” (Dow AgroSciences LLC, priority 2015, dated 2017).

Assay [1] relates to Beet Armyworm (Spodoptera exigua, LAPHEG). As to the kind of experiment: Bioassay on Beet Armyworm (BAW), 128-well diet tray assay. In kind it is in vivo. The settings on record: 168 h, 50 μg/cm^2 on artificial diet, second instar larvae, 25° C., five to seven days, average of eight wells, read-out: BAW % Control (or Mortality) rating. As for the experimental part: (§1) Example A: Bioassays on Beet Armyworm (Spodoptera exigua, LAPHEG) (“BAW”) and Cabbage Looper (Trichoplusia ni, TRIPNI) (“CL”)
(§2) Certain molecules disclosed in this document were tested against BAW and CL using procedures described in the following examples. In the reporting of the results, the “BAW & CL Rating Table” was used (See Table Section).
Bioassays on BAW were conducted using a 128-well diet tray assay. One to five second instar BAW larvae were placed in each well (3 mL) of the diet tray that had been previously filled with 1 mL of artificial diet to which 50 μg/cm^2 of the test molecule (dissolved in 50 μL of 90:10 acetone-water mixture) had been applied (to each of eight wells) and then allowed to dry. Trays were covered with a clear self-adhesive cover, vented to allow gas exchange, and held at 25° C., 14:10 light-dark for five to seven days. Percent mortality was recorded for the larvae in each well; activity in the eight wells was then averaged. The results are indicated in the table entitled “Table ABC: Biological Results” (See Table Section).

For assay [2], the system named is Cabbage Looper (Trichoplusia ni, TRIPNI). Briefly: Bioassay on Cabbage Looper (CL), 128-well diet tray assay. In kind it is in vivo. As to conditions: 168 h, 50 μg/cm^2 on artificial diet, second instar larvae, 25° C., five to seven days, average of eight wells, read-out: CL % Control (or Mortality) rating. The procedure:
as §1, §2
Bioassays on CL were conducted using a 128-well diet tray assay. One to five second instar CL larvae were placed in each well (3 mL) of the diet tray that had been previously filled with 1 mL of artificial diet to which 50 μg/cm^2 of the test molecule (dissolved in 50 μL of 90:10 acetone-water mixture) had been applied (to each of eight wells) and then allowed to dry. Trays were covered with a clear self-adhesive cover, vented to allow gas exchange, and held at 25° C., 14:10 light-dark for five to seven days. Percent mortality was recorded for the larvae in each well; activity in the eight wells was then averaged. The results are indicated in the table entitled “Table ABC: Biological Results” (See Table Section).

On to `Cc1ccc(C(F)(F)F)c(N2C(=O)CS/C2=N\C(=O)Nc2ccc(CCc3ncn(-c4ccc(OC(F)(F)F)cc4)n3)cc2)c1` [F5, (Z)-1-(3-(5-Methyl-2-(trifluoromethyl)phenyl)-4-oxothiazolidin-2-ylidene)-3-(4-(2-(1-(4-(trifluoromethoxy)phenyl)-1H-1,2,4-triazol-3-yl)ethyl)phenyl)urea], for which the mortality at 50 µg/cm2 in assay [1] and in assay [2] was 50 to 100% in each case.

`Cc1ccc(OCC(F)(F)F)c(N2C(=O)CS/C2=N\C(=O)Nc2ccc(CCc3ncn(-c4ccc(OC(F)(F)F)cc4)n3)cc2)c1` [F13, (Z)-1-(3-(5-Methyl-2-(2,2,2-trifluoroethoxy)phenyl)-4-oxothiazolidin-2-ylidene)-3-(4-(2-(1-(4-(trifluoromethoxy)phenyl)-1H-1,2,4-triazol-3-yl)ethyl)phenyl)urea]: the mortality at 50 µg/cm2 in assay [1] and in assay [2] was 50 to 100% in each case.

On to `COCc1ccc(C)cc1N1C(=O)CS/C1=N\C(=O)Nc1ccc(CCc2ncn(-c3ccc(OC(F)(F)F)cc3)n2)cc1` [F21, (Z)-1-(3-(2-(Methoxymethyl)-5-methylphenyl)-4-oxothiazolidin-2-ylidene)-3-(4-(2-(1-(4-(trifluoromethoxy)phenyl)-1H-1,2,4-triazol-3-yl)ethyl)phenyl)urea], for which the mortality at 50 µg/cm2 in assay [1] and in assay [2] was 50 to 100% in each case.

On to `Cc1ccc(C(C)C)c(N2C(=O)CS/C2=N\C(=O)Nc2ccc(/C=C/c3ncn(-c4ccc(OC(F)(F)F)cn4)n3)cn2)c1` [F71, 1-((Z)-3-(2-isopropyl-5-methylphenyl)-4-oxothiazolidin-2-ylidene)-3-(5-((E)-2-(1-(5-(trifluoromethoxy)pyridin-2-yl)-1H-1,2,4-triazol-3-yl)vinyl)pyridin-2-yl)urea], for which the mortality at 50 µg/cm2 in assay [1] and in assay [2] was 50 to 100% in each case.

Consider `CC(C)c1ccc(C(F)(F)F)cc1N1C(=O)CS/C1=N\C(=O)Nc1ccc(CCc2ncn(-c3ccc(OC(F)(F)F)cc3)n2)cc1` [F29, (Z)-1-(3-(2-Isopropyl-5-(trifluoromethyl)phenyl)-4-oxothiazolidin-2-ylidene)-3-(4-(2-(1-(4-(trifluoromethoxy)phenyl)-1H-1,2,4-triazol-3-yl)ethyl)phenyl)urea], for which the mortality at 50 µg/cm2 in assay [1] and in assay [2] was 50 to 100% each time.

For `Cc1ccc(OC(C)C)c(N2C(=O)CS/C2=N\C(=O)Nc2ccc(CCc3ncn(-c4ccc(OC(F)(F)F)cc4)n3)cc2)c1` [F11, (Z)-1-(3-(2-Isopropoxy-5-methylphenyl)-4-oxothiazolidin-2-ylidene)-3-(4-(2-(1-(4-(trifluoromethoxy)phenyl)-1H-1,2,4-triazol-3-yl)ethyl)phenyl)urea], the mortality at 50 µg/cm2 in assay [1] and in assay [2] was 50 to 100% each time.

`Cc1ccc(OCC(F)(F)F)c(N2C(=O)CS/C2=N\C(=O)Nc2ccc(/C=C/c3ncn(-c4ccc(OC(F)(F)F)cc4)n3)cc2)c1` [F51, 1-((Z)-3-(5-Methyl-2-(2,2,2-trifluoroethoxy)phenyl)-4-oxothiazolidin-2-ylidene)-3-(4-((E)-2-(1-(4-(trifluoromethoxy)phenyl)-1H-1,2,4-triazol-3-yl)vinyl)phenyl)urea]: the mortality at 50 µg/cm2 in assay [1] and in assay [2] was 50 to 100% in each case.

As for `Cc1ccc(C(F)(F)F)c(N2C(=O)CS/C2=N\C(=O)Nc2ccc(/C=C/c3ncn(-c4ccc(OC(F)(F)F)cc4)n3)cc2)c1` [F43, 1-((Z)-3-(5-Methyl-2-(trifluoromethyl)phenyl)-4-oxothiazolidin-2-ylidene)-3-(4-((E)-2-(1-(4-(trifluoromethoxy)phenyl)-1H-1,2,4-triazol-3-yl)vinyl)phenyl)urea], the mortality at 50 µg/cm2 in assay [1] and in assay [2] was 50 to 100% each time.

For `Cc1ccc(C(C)C)c(-n2ccs/c2=N\C(=O)Nc2ccc(CCc3ncn(-c4ccc(OC(F)(F)F)cc4)n3)cc2F)c1` [F37, (Z)-1-(2-Fluoro-4-(2-(1-(4-(trifluoromethoxy)phenyl)-1H-1,2,4-triazol-3-yl)ethyl)phenyl)-3-(3-(2-isopropyl-5-methylphenyl)thiazol-2(3H)-ylidene)urea], the mortality at 50 µg/cm2 in assay [1] and in assay [2] was 50 to 100% throughout.

With `Cc1ccc(C(C)C)c(N2C(=O)CS/C2=N\C(=O)Nc2ccc(CCc3ncn(-c4ccc(OC(F)(F)F)cc4)n3)cc2)c1` [F1, (Z)-1-(3-(2-isopropyl-5-methylphenyl)-4-oxothiazolidin-2-ylidene)-3-(4-(2-(1-(4-(trifluoromethoxy)phenyl)-1H-1,2,4-triazol-3-yl)ethyl)phenyl)urea], the mortality at 50 µg/cm2 in assay [1] and in assay [2] was 50 to 100% throughout.

Turning to `Cc1ccc(Cl)c(N2C(=O)CS/C2=N\C(=O)Nc2ccc(CCc3ncn(-c4ccc(OC(F)(F)F)cc4)n3)cc2)c1` [F6, (Z)-1-(3-(2-Chloro-5-methylphenyl)-4-oxothiazolidin-2-ylidene)-3-(4-(2-(1-(4-(trifluoromethoxy)phenyl)-1H-1,2,4-triazol-3-yl)ethyl)phenyl)urea], the mortality at 50 µg/cm2 in assay [1] and in assay [2] was 50 to 100% throughout.

For the compound `Cc1ccc(C(C)C)c(N2C(=O)CS/C2=N\C(=O)Nc2ccc(/C=C/c3ncn(-c4ccc(OC(F)(F)F)cc4)n3)cc2Cl)c1` [F56, 1-(2-chloro-4-((E)-2-(1-(4-(trifluoromethoxy)phenyl)-1H-1,2,4-triazol-3-yl)vinyl)phenyl)-3-((Z)-3-(2-isopropyl-5-methylphenyl)-4-oxothiazolidin-2-ylidene)urea], the mortality at 50 µg/cm2 in assay [1] and in assay [2] was 50 to 100% in each case.

Turning to `COCc1ccc(C)cc1N1C(=O)CS/C1=N\C(=O)Nc1ccc(/C=C/c2ncn(-c3ccc(OC(F)(F)F)cc3)n2)cc1F` [F59, 1-(2-Fluoro-4-((E)-2-(1-(4-(trifluoromethoxy)phenyl)-1H-1,2,4-triazol-3-yl)vinyl)phenyl)-3-((Z)-3-(2-(methoxymethyl)-5-methylphenyl)-4-oxothiazolidin-2-ylidene)urea], the mortality at 50 µg/cm2 in assay [1] and in assay [2] was 50 to 100% each time.

For `CC(C)c1ccc(C(F)(F)F)cc1N1C(=O)CS/C1=N\C(=O)Nc1ccc(/C=C/c2ncn(-c3ccc(OC(F)(F)F)cc3)n2)cc1F` [F64, 1-(2-fluoro-4-((E)-2-(1-(4-(trifluoromethoxy)phenyl)-1H-1,2,4-triazol-3-yl)vinyl)phenyl)-3-((Z)-3-(2-isopropyl-5-(trifluoromethyl)phenyl)-4-oxothiazolidin-2-ylidene)urea], the mortality at 50 µg/cm2 in assay [1] and in assay [2] was 50 to 100% in each case.

Regarding `Cc1ccc(C(C)C)c(N2C(=O)CS/C2=N\C(=O)Nc2ccc(/C=C/c3ncn(-c4ccc(OC(F)(F)F)cc4)n3)c(C)c2)c1` [F39, 1-((Z)-3-(2-Isopropyl-5-methylphenyl)-4-oxothiazolidin-2-ylidene)-3-(3-methyl-4-((E)-2-(1-(4-(trifluoromethoxy)phenyl)-1H-1,2,4-triazol-3-yl)vinyl)phenyl)urea], the mortality at 50 µg/cm2 in assay [1] and in assay [2] was 50 to 100% throughout.

In the case of `COC(=O)c1cc(/C=C/c2ncn(-c3ccc(OC(F)(F)F)cc3)n2)ccc1NC(=O)/N=C1\SCC(=O)N1c1cc(C)ccc1C(C)C` [F54, Methyl 2-(3-((Z)-3-(2-isopropyl-5-methylphenyl)-4-oxothiazolidin-2-ylidene)ureido)-5-((E)-2-(1-(4-(trifluoromethoxy)phenyl)-1H-1,2,4-triazol-3-yl)vinyl)benzoate], the mortality at 50 µg/cm2 in assay [1] and in assay [2] was 50 to 100% each time.

With `Cc1ccc(Cl)c(N2C(=O)CS/C2=N\C(=O)Nc2ccc(/C=C/c3ncn(-c4ccc(OC(F)(F)F)cc4)n3)cc2)c1` [F44, 1-((Z)-3-(2-Chloro-5-methylphenyl)-4-oxothiazolidin-2-ylidene)-3-(4-((E)-2-(1-(4-(trifluoromethoxy)phenyl)-1H-1,2,4-triazol-3-yl)vinyl)phenyl)urea], the mortality at 50 µg/cm2 in assay [1] and in assay [2] was 50 to 100% each time.

For `CCOc1ccc(C)cc1N1C(=O)CS/C1=N\C(=O)Nc1ccc(CCc2ncn(-c3ccc(OC(F)(F)F)cc3)n2)cc1` [F8, (Z)-1-(3-(2-Ethoxy-5-methylphenyl)-4-oxothiazolidin-2-ylidene)-3-(4-(2-(1-(4-(trifluoromethoxy)phenyl)-1H-1,2,4-triazol-3-yl)ethyl)phenyl)urea], the mortality at 50 µg/cm2 in assay [1] and in assay [2] was 50 to 100% in each case.

With `COC(=O)c1cc(CCc2ncn(-c3ccc(OC(F)(F)F)cc3)n2)ccc1NC(=O)/N=C1\SCC(=O)N1c1cc(C)ccc1C(C)C` [F16, Methyl (Z)-2-(3-(3-(2-isopropyl-5-methylphenyl)-4-oxothiazolidin-2-ylidene)ureido)-5-(2-(1-(4-(trifluoromethoxy)phenyl)-1H-1,2,4-triazol-3-yl)ethyl)benzoate], the mortality at 50 µg/cm2 in assay [1] and in assay [2] was 50 to 100% in each case.

By mortality is commonly meant the percentage killed.
